According to paper PMC9890130 (Clinical cancer research : an official journal of the …, 2023):

Tests used:
[1] = cited from earlier work
BFTC909 cells = experiment: [^68Ga]Ga-DK223 uptake in BFTC909 cells with and without aPD-L1 mAbs; assay type: cell-based, human; details: 60 nM mAb
BFTC909 xenografts [2] = assay type: in vivo, NSG mice; details: 10 mg/kg; for accessible PD-L1 levels: 120 h of treatment, tumor %ID/g as fraction of saline group; for [^68Ga]Ga-DK223 tumor uptake versus saline controls: 120 h treatment
BFTC909 xenografts [3] = experiment: [^68Ga]Ga-DK223 PET-CT of BFTC909 xenografts after aPD-L1 treatment; assay type: in vivo, NSG mice
[4] = 24 h after 10 mg/kg mAb i.v., PET 60 min after tracer

Substance | half-life [1] [days] | [^68Ga]Ga-DK223 uptake in BFTC909 cells in presence of mAb (BFTC909 cells) | accessible PD-L1 levels (BFTC909 xenografts [2]) | [^68Ga]Ga-DK223 tumor uptake versus saline controls (BFTC909 xenografts [2]) | [^68Ga]Ga-DK223 uptake in tumors (PET) after mAb treatment (BFTC909 xenografts [3]; [4]) | reduction of [^68Ga]Ga-DK223 tumor uptake versus saline (BFTC909 xenografts [2]; 24 h treatment, P<0.0001) | [^68Ga]Ga-DK223 uptake in tumors (PET) after mAb treatment (BFTC909 xenografts [3]; 72 h after 10 mg/kg mAb i.v., avelumab compared with durvalumab)
durvalumab | 18 | less than 1% | less than 10% | continued reduction in accessible target levels | significantly lower uptake |  | 
avelumab | 6.1 | less than 1% | increase in accessible PD-L1 levels | no significant differences | significantly lower uptake | more than 80% | increased
